For data set [1], the target named is Prostaglandin G/H synthase 1 (Homo sapiens, UniProt P23219). Put plainly: Inhibition of human COX-1.
Data set [2] deals with T1, Prostaglandin G/H synthase 2 (Homo sapiens, UniProt P35354).
T1 sequence (P35354 whole entry): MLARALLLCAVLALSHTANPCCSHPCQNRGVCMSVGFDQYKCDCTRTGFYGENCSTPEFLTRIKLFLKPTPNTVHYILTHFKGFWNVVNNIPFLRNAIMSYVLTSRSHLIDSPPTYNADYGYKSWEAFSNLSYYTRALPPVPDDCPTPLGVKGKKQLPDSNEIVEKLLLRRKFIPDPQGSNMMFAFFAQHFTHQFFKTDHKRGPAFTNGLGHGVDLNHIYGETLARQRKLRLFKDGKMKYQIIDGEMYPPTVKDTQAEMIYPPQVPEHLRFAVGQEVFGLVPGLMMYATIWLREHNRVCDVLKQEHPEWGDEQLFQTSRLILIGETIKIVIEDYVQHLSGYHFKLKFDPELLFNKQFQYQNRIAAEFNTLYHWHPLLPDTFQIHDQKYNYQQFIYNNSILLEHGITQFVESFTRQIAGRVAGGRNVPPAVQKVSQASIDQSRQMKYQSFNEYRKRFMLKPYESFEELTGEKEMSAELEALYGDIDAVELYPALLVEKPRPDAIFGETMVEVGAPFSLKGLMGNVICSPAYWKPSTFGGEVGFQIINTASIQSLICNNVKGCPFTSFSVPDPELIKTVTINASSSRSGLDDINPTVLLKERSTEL
The experiment in a line: Inhibition of human COX-2.

The species named for data set [3] is Rattus norvegicus. The experiment in a line: Antiinflammatory effect in complete Freund's adjuvant-induced Lewis rat arthritis model assessed as reduction in paw swelling by volume displacement plethysmometry. It counts as functional.
The subject of data set [4] is Rattus norvegicus. The experiment in a line: Antiinflammatory activity against carrageenan-induced inflammation in Sprague-Dawley rat air pouch model assessed as reduction in PGE2 level administered 3 hrs after carrageenan challenge. It counts as functional.
In data set [5] the test system is Rattus norvegicus. Put plainly: Analgesic activity against carrageenan-induced thermal hyperalgesia in Sprague-Dawley rat assessed as paw withdrawal latency administered 1 to 3 hrs after carrageenan challenge. It counts as functional.
The target in data set [6] is COX-1/COX-2 (Homo sapiens) (UniProt P35354+P23219). The experiment in a line: Selectivity ratio of IC50 for human COX-1 to IC50 for human COX-2.
Data set [7] in a line: Half life in dog. As to conditions: in vivo. It counts as ADME, organism-based, Canis lupus familiaris.
Data set [8] in a line: Half life in rat. Format: ADME, organism-based. As to conditions: in vivo.
Data set [9] deals with Rattus norvegicus. Put plainly: Antiinflammatory activity against carrageenan-induced paw edema in Sprague-Dawley rat administered 1 to 3 hrs after carrageenan challenge. Format: functional. For orientation: Carrageenan injected into the paw causes an acute inflammation.

Molecules are shown by their SMILES. Some results are limits rather than exact numbers.

Sequence of COX-1/COX-2 (Homo sapiens) (P23219 whole entry, looked up, one chain of several): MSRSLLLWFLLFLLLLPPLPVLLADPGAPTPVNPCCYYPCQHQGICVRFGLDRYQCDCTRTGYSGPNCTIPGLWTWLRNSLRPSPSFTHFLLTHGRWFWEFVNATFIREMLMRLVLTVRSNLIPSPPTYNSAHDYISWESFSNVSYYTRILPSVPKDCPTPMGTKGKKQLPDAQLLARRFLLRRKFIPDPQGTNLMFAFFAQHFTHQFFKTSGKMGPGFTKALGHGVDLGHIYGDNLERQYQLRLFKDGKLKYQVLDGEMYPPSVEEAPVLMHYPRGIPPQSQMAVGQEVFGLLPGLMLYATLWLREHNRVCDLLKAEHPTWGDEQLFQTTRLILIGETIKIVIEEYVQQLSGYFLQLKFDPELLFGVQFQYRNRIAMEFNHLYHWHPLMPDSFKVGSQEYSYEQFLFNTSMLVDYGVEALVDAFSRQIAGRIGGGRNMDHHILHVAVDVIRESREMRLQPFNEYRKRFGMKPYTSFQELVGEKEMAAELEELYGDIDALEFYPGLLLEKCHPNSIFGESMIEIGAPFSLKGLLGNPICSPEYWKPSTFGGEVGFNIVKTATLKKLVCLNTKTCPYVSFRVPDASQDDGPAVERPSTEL
Sequence of Prostaglandin G/H synthase 1 (P23219 whole entry): as the sequence (P23219 whole entry, looked up, one chain of several) above

The IC50 is the concentration that gives 50% inhibition. Read a high IC50 as lower potency. As to `NS(=O)(=O)c1ccc(-c2cc(Cl)cc3c2OC(C(F)(F)F)C(C(=O)O)=C3)cc1` (stereo not drawn), the figures for the 50% inhibitory concentration (IC50) in data set [1] and in [2] were 1740 nM and 760 nM, respectively.
In general, ED50 refers to the midpoint of the dose-response relation. Take `Cc1ccc(-c2cc(C(F)(F)F)nn2-c2ccc(S(N)(=O)=O)cc2)cc1` [CELECOXIB]: the ED50 worked out at 0.3 mg/kg in the data set filed under Rattus norvegicus [3] and 35 mg/kg in the data set with Rattus norvegicus [5]. Besides, in the data set on Rattus norvegicus [4], the “inhibition (INH)” value is listed as 94%.
As to `C#Cc1cc(Cl)cc2c1OC(C(F)(F)F)C(C(=O)O)=C2` (stereo not drawn), the IC50 is < 350 nM in [1] and 43 nM in data set [2].
On to `O=C(O)C1=Cc2cc(Cl)c(Cl)c(Cl)c2OC1C(F)(F)F` (stereo not drawn), for which the IC50 amounted to 2700 nM in data set [1] and 43 nM in data set [2]. Moreover, in data set [6], the Ratio IC50 is 63.
Consider `O=C(O)C1=Cc2c(Cl)cc(Cl)cc2OC1C(F)(F)F` (stereo not drawn), for which the IC50 in data set [1] is 145000 nM; in data set [2] it was 12000 nM. In data set [6], the Ratio IC50 stood at 12.
As for `C=Cc1cc(Cl)cc2c1OC(C(F)(F)F)C(C(=O)O)=C2` (stereo not drawn), the values for the IC50 in data set [1] and in data set [2] were 140 nM and 18 nM, respectively.
On the same counts, the results for `O=C(O)C1=Cc2cc(Cl)cc(C#Cc3ccccc3)c2OC1C(F)(F)F` (stereo not drawn) are 33000 nM and 140 nM.
The term half-life denotes how long it takes for the measured level to halve. High values mean slow loss, low ones fast loss. In the case of `O=C(O)C1=Cc2cc(Cl)cc(Cl)c2O[C@@H]1C(F)(F)F`, the half-life is 20.4 h in [7] and 10.1 h in [8]. Besides, the ED50 in the data set filed under Rattus norvegicus [3] stood at 0.03 mg/kg; with Rattus norvegicus [9], 7.1 mg/kg; in the data set on Rattus norvegicus [4] (Rattus norvegicus, Sprague-Dawley, 3 h) it was 0.54 mg/kg; in the data set on Rattus norvegicus [5], 2.6 mg/kg.
Consider `O=C(O)C1=Cc2cc(Cl)cc(-c3ccccc3)c2OC1C(F)(F)F` (stereo not drawn), for which the IC50 came out at 3110 nM in [1] and 110 nM in [2].
For the compound `O=C(O)C1=Cc2ccc(Cl)c(Cl)c2OC1C(F)(F)F` (stereo not drawn), the IC50 in data set [1] and in data set [2] was 300000 nM throughout. Also, in data set [6], the Ratio IC50 is 1.
Regarding `O=C(O)C1=Cc2cc(Cl)c(Cl)cc2OC1C(F)(F)F` (stereo not drawn), the values for the IC50 in [1] and in [2] were 94500 nM and 62 nM, respectively. Further, the Ratio IC50 in data set [6] amounted to 1520.
The corresponding values for `O=C(O)C1=Cc2c(Cl)ccc(Cl)c2OC1C(F)(F)F` (stereo not drawn) are 11000 nM, 100 nM and 110.
`O=C(O)C1=Cc2cc(Cl)ccc2OC1C(F)(F)F` (stereo not drawn): the IC50 in data set [1] was found to be 29200 nM; in data set [2], 320 nM. For the same compound, the figures for the ED50 in the data set listed under Rattus norvegicus [3] and with Rattus norvegicus [5] were 0.4 mg/kg and 6 mg/kg, respectively. Besides, the Ratio IC50 in data set [6] was determined as 90. Also, the “inhibition (INH)” value in the data set with Rattus norvegicus [4] was found to be 98%.
Turning to `O=C(O)C1=Cc2c(cc(Cl)c(Cl)c2Cl)OC1C(F)(F)F` (stereo not drawn), the IC50 in data set [1] worked out at 880 nM; in data set [2] it was 6 nM. Further, the Ratio IC50 in data set [6] was 136.

The values are drawn from ChEMBL document CHEMBL1287761, “The novel benzopyran class of selective cyclooxygenase-2 inhibitors-part I: the first clinical candidate” (Bioorg Med Chem Lett, 2010).
